Counter-ions that a name gives are not always drawn. Like-named read-outs stand apart in the source and are kept apart here.
Tests used:
Assay type in all cases: in vivo
[1] = test system: Cabbage Looper (CL) (Trichoplusia ni); assay: Bioassay on Cabbage Looper (CL), 128-well diet tray assay; conditions: 168 h, read-out: CL % Control (or Mortality) rating
Method: (§1) Certain molecules disclosed in this document were tested against BAW and CL using procedures described in the following examples. In the reporting of the results, the “BAW & CL Rating Table” was used (See Table Section).
Bioassays on CL were conducted using a 128-well diet tray assay. One to five second instar CL larvae were placed in each well (3 mL) of the diet tray that had been previously filled with 1 mL of artificial diet to which 50 μg/cm^2 of the test compound (dissolved in 50 μL of 90:10 acetone-water mixture) had been applied (to each of eight wells) and then allowed to dry. Trays were covered with a clear self-adhesive cover, and held at 25° C., 14:10 light-dark for five to seven days. Percent mortality was recorded for the larvae in each well; activity in the eight wells was then averaged. The results are indicated in the table entitled “Table ABC: Assay Results” and “Table ABCD: Assay Results” (See Table Section).

[2] = test system: Beet Armyworm (BAW) (Spodoptera exigua); assay: Bioassay on Beet Armyworm (BAW), 128-well diet tray assay; conditions: 168 h, read-out: BAW % Control (or Mortality) rating
Method: as §1
Bioassays on BAW were conducted using a 128-well diet tray assay. one to five second instar BAW larvae were placed in each well (3 mL) of the diet tray that had been previously filled with 1 mL of artificial diet to which 50 μg/cm^2 of the test compound (dissolved in 50 μL of 90:10 acetone-water mixture) had been applied (to each of eight wells) and then allowed to dry. Trays were covered with a clear self-adhesive cover, and held at 25° C., 14:10 light-dark for five to seven days. Percent mortality was recorded for the larvae in each well; activity in the eight wells was then averaged. The results are indicated in the tables entitled “Table ABC: Assay Results” and “Table ABCD: Assay Results” (See Table Section).

[3] = test system: Yellow Fever Mosquito (YFM) (Aedes aegypti); assay: Bioassay on Yellow Fever Mosquito (YFM) larvae, 96-well plate; conditions: about 1 day-old larvae, master plate 4000 ppm in DMSO diluted, scored on mortality after 3 days
Method: Certain molecules disclosed in this document were tested against YFM using procedures described in the following paragraph. In the reporting of the results, the “GPA & YFM Rating Table” was used (See Table Section).
Master plates containing 400 μg of a molecule dissolved in 100 μL of dimethyl sulfoxide (DMSO) (equivalent to a 4000 ppm solution) are used. A master plate of assembled molecules contains 15 μL per well. To this plate, 135 μL of a 90:10 water:acetone mixture is added to each well. A robot (Biomek® NXP Laboratory Automation Workstation) is programmed to dispense 15 μL aspirations from the master plate into an empty 96-well shallow plate (“daughter” plate). There are 6 reps (“daughter” plates) created per master. The created daughter plates are then immediately infested with YFM larvae.
The day before plates are to be treated, mosquito eggs are placed in Millipore water containing liver powder to begin hatching (4 g. into 400 mL). After the daughter plates are created using the robot, they are infested with 220 μL of the liver powder/larval mosquito mixture (about 1 day-old larvae). After plates are infested with mosquito larvae, a non-evaporative lid is used to cover the plate to reduce drying. Plates are held at room temperature for 3 days prior to grading. After 3 days, each well is observed and scored based on mortality.

[4] = Table ABCD, 50 μg/cm^2 on artificial diet, second instar larvae, five to seven days, 25° C.
[5] = Table ABC, 50 μg/cm^2 on artificial diet, second instar larvae, five to seven days, 25° C.

For `CC(C)(C)OC(=O)NC1Cc2ccc(-c3ncn(-c4ccc(OC(F)(F)C(F)(F)F)cc4)n3)cc2C1` (centres unmarked) [C2, tert-butyl (5-(1-(4-(perfluoroethoxy)phenyl)-1H-1,2,4-triazol-3-yl)-2,3-dihydro-1H-inden-2-yl)carbamate], the mortality at 50 µg/cm2 [1, 4] was 50 to 100% and the mortality at 50 µg/cm2 [2, 4] was 50 to 100%.
With `NC1Cc2ccc(-c3ncn(-c4ccc(OC(F)(F)F)cc4)n3)cc2C1` (centres unmarked) [C3, 5-(1-(4-(trifluoromethoxy)phenyl)-1H-1,2,4-triazol-3-yl)-2,3-dihydro-1H-inden-2-amine dihydrochloride] the mortality at 50 µg/cm2 [1] was 50 to 100%, the “YFM % Control (or Mortality) rating” value ([3]; Table ABCD) was “A (80-100)” and the mortality at 50 µg/cm2 [2] was 50 to 100%.
In the case of `NC1Cc2ccc(-c3ncn(-c4ccc(OC(F)(F)F)cc4)n3)cc2C1.O=C(O)C(F)(F)F` (centres unmarked) [C4, 5-(1-(4-(trifluoromethoxy)phenyl)-1H-1,2,4-triazol-3-yl)-2,3-dihydro-1H-inden-2-amine 2,2,2-trifluoroacetate], the “YFM % Control (or Mortality) rating” value ([3]; Table ABCD) is reported as “D (No activity noticed in this bioassay)”.
`C=C(C)c1ccc(Cl)cc1[N+](=O)[O-]` [C8, 4-Chloro-2-nitro-1-(prop-1-en-2-yl)benzene] was tested, and the “YFM % Control (or Mortality) rating” value ([3]; Table ABCD) was “D (No activity noticed in this bioassay)”.
`CCc1ccc(C)cc1NC(=S)NC(=O)c1ccccc1` [C17, N-((2-Ethyl-5-methylphenyl)carbamothioyl)benzamide] was tested, and the “YFM % Control (or Mortality) rating” value ([3]; Table ABCD) was “D (No activity noticed in this bioassay)”.
For `COc1ccc(C(C)C)c(NC(=S)NC(=O)c2ccccc2)c1` [C18, N-((2-Isopropyl-5-methoxyphenyl)carbamothioyl)benzamide], the “YFM % Control (or Mortality) rating” value ([3]; Table ABCD) was “D (No activity noticed in this bioassay)”.
With `CCCc1ccc(C)cc1NC(N)=S` [C20, 1-(5-methyl-2-propylphenyl)thiourea] the “YFM % Control (or Mortality) rating” value ([3]; Table ABCD) was “D (No activity noticed in this bioassay)”.
`CCc1ccc(C)cc1NC(N)=S` [C22, 1-(2-Ethyl-5-methylphenyl)thiourea] was tested, and the “YFM % Control (or Mortality) rating” value ([3]; Table ABCD) was “D (No activity noticed in this bioassay)”.
In the case of `Cc1ccc(C(C)C)c(N2C(=N)SCC2=O)c1` [C29, 2-imino-3-(2-isopropyl-5-methylphenyl)thiazolidin-4-one], the mortality at 50 µg/cm2 [1, 4] is reported as 50 to 100%, the “YFM % Control (or Mortality) rating” value ([3]; Table ABCD) is reported as “B (More than 0-Less than 80)” and the mortality at 50 µg/cm2 [2, 4] is reported as 0 to 50%.
`Cc1ccc(C(C)C)c(N2C(=O)CS/C2=N\C(=O)Oc2ccc([N+](=O)[O-])cc2)c1` [C30, (Z)-4-nitrophenyl (3-(2-isopropyl-5-methylphenyl)-4-oxothiazolidin-2-ylidene)carbamate] was tested, and the “YFM % Control (or Mortality) rating” value ([3]; Table ABCD) was “D (No activity noticed in this bioassay)” and the mortality at 50 µg/cm2 [2] was 0%.
`Cc1ccc(C(C)C)c(NC(=S)NC(=O)NC2Cc3ccc(-c4ncn(-c5ccc(OC(F)(F)F)cc5)n4)cc3C2)c1` (centres unmarked) [F1, 1-[(2-isopropyl-5-methyl-phenyl)carbamothioyl]-3-[5-[1-[4-(trifluoromethoxy)phenyl]-1,2,4-triazol-3-yl]indan-2-yl]urea] was tested, and the mortality at 50 µg/cm2 [1, 5] was 50 to 100%, the “YFM % Control (or Mortality) rating” value ([3]; Table ABC) was “A (80-100)” and the mortality at 50 µg/cm2 [2, 5] was 50 to 100%.
With `Cc1ccc(C(C)C)c(NC(=S)NC(=O)NC2Cc3ccc(-c4ncn(-c5ccc(OC(F)(F)C(F)(F)F)cc5)n4)cc3C2)c1` (centres unmarked) [F3, 1-[(2-isopropyl-5-methyl-phenyl)carbamothioyl]-3-[5-[1-[4-(1,1,2,2,2-pentafluoroethoxy)phenyl]-1,2,4-triazol-3-yl]indan-2-yl]urea] the mortality at 50 µg/cm2 [1, 5] was 50 to 100%, the “YFM % Control (or Mortality) rating” value ([3]; Table ABC) was “A (80-100)” and the mortality at 50 µg/cm2 [2, 5] was 50 to 100%.
With `CCc1ccc(C)cc1NC(=S)NC(=O)NC1Cc2ccc(-c3ncn(-c4ccc(OC(F)(F)F)cc4)n3)cc2C1` (centres unmarked) [F5, 1-[(2-Ethyl-5-methyl-phenyl)carbamothioyl]-3-[5-[1-[4-(trifluoromethoxy)phenyl]-1,2,4-triazol-3-yl]indan-2-yl]urea] the mortality at 50 µg/cm2 [1, 5] was 50 to 100% and the mortality at 50 µg/cm2 [2, 5] was 50 to 100%.
Work on `CCc1cccc(C)c1NC(=S)NC(=O)NC1Cc2ccc(-c3ncn(-c4ccc(OC(F)(F)F)cc4)n3)cc2C1` (centres unmarked) [F6, 1-[(2-Ethyl-6-methyl-phenyl)carbamothioyl]-3-[5-[1-[4-(trifluoromethoxy)phenyl]-1,2,4-triazol-3-yl]indan-2-yl]urea] yielded a mortality at 50 µg/cm2 [1, 5] of 50 to 100% and a mortality at 50 µg/cm2 [2, 5] of 50 to 100%.
Compound `CCc1ccccc1NC(=S)NC(=O)NC1Cc2ccc(-c3ncn(-c4ccc(OC(F)(F)F)cc4)n3)cc2C1` (centres unmarked) [F7, 1-[(2-Ethylphenyl)carbamothioyl]-3-[5-[1-[4-(trifluoromethoxy)phenyl]-1,2,4-triazol-3-yl]indan-2-yl]urea] has a mortality at 50 µg/cm2 [1, 5] of 50 to 100% and a mortality at 50 µg/cm2 [2, 5] of 50 to 100%.
For `CCCc1ccc(C)cc1NC(=S)NC(=O)NC1Cc2ccc(-c3ncn(-c4ccc(OC(F)(F)F)cc4)n3)cc2C1` (centres unmarked) [F8, 1-[(5-Methyl-2-propyl-phenyl)carbamothioyl]-3-[5-[1-[4-(trifluoromethoxy)phenyl]-1,2,4-triazol-3-yl]indan-2-yl]urea], the mortality at 50 µg/cm2 [1, 5] was 50 to 100% and the mortality at 50 µg/cm2 [2, 5] was 50 to 100%.
In the case of `CCc1ccc(C)cc1N1C(=O)CS/C1=N\C(=O)NC1Cc2ccc(-c3ncn(-c4ccc(OC(F)(F)F)cc4)n3)cc2C1` (centres unmarked) [F9, (Z)-1-(3-(2-Ethyl-5-methylphenyl)-4-oxothiazolidin-2-ylidene)-3-(5-(1-(4-(trifluoromethoxy)phenyl)-1H-1,2,4-triazol-3-yl)-2,3-dihydro-1H-inden-2-yl)urea], the mortality at 50 µg/cm2 [1, 5] is reported as 50 to 100%, the “YFM % Control (or Mortality) rating” value ([3]; Table ABC) is reported as “A (80-100)” and the mortality at 50 µg/cm2 [2, 5] is reported as 50 to 100%.
With `CCc1cccc(C)c1N1C(=O)CS/C1=N\C(=O)NC1Cc2ccc(-c3ncn(-c4ccc(OC(F)(F)F)cc4)n3)cc2C1` (centres unmarked) [F10, (Z)-1-(3-(2-Ethyl-6-methylphenyl)-4-oxothiazolidin-2-ylidene)-3-(5-(1-(4-(trifluoromethoxy)phenyl)-1H-1,2,4-triazol-3-yl)-2,3-dihydro-1H-inden-2-yl)urea] the mortality at 50 µg/cm2 [1, 5] was 50 to 100%, the “YFM % Control (or Mortality) rating” value ([3]; Table ABC) was “A (80-100)” and the mortality at 50 µg/cm2 [2, 5] was 50 to 100%.
For `CC(C)c1ccccc1NC(=S)NC(=O)NC1Cc2ccc(-c3ncn(-c4ccc(OC(F)(F)F)cc4)n3)cc2C1` (centres unmarked) [F14, 1-[(2-Isopropylphenyl)carbamothioyl]-3-[5-[1-[4-(trifluoromethoxy)phenyl]-1,2,4-triazol-3-yl]indan-2-yl]urea], the mortality at 50 µg/cm2 [1, 5] was 50 to 100% and the mortality at 50 µg/cm2 [2, 5] was 50 to 100%.
`CC(C)c1ccccc1N1C(=O)CCS/C1=N\C(=O)NC1Cc2ccc(-c3ncn(-c4ccc(OC(F)(F)F)cc4)n3)cc2C1` (centres unmarked) [FA4, (Z)-1-(3-(2-isopropylphenyl)-4-oxo-1,3-thiazinan-2-ylidene)-3-(5-(1-(4-(trifluoromethoxy)phenyl)-1H-1,2,4-triazol-3-yl)-2,3-dihydro-1H-inden-2-yl)urea] was tested, and the mortality at 50 µg/cm2 [1, 5] was 50 to 100% and the mortality at 50 µg/cm2 [2, 5] was 50 to 100%.
With `Cc1ccc(C(C)C)c(N2/C(=N/C(=O)NC3Cc4ccc(-c5ncn(-c6ccc(OC(F)(F)F)cc6)n5)cc4C3)SCCC2C)c1` (centres unmarked) [P16, (Z)-1-(3-(2-Isopropyl-5-methylphenyl)-4-methyl-1,3-thiazinan-2-ylidene)-3-(5-(1-(4-(trifluoromethoxy)phenyl)-1H-1,2,4-triazol-3-yl)-2,3-dihydro-1H-inden-2-yl)urea] the mortality at 50 µg/cm2 [1, 5] was 50 to 100% and the mortality at 50 µg/cm2 [2, 5] was 50 to 100%.
`Cc1ccc(C(C)C)c(N2C(=O)CCS/C2=N\C(=O)NC2Cc3ccc(-c4ncn(-c5ccc(OC(F)(F)F)cc5)n4)cc3C2)c1` (centres unmarked) [P17, (Z)-1-(3-(2-Isopropyl-5-methylphenyl)-4-oxo-1,3-thiazinan-2-ylidene)-3-(5-(1-(4-(trifluoromethoxy)phenyl)-1H-1,2,4-triazol-3-yl)-2,3-dihydro-1H-inden-2-yl)urea] showed a mortality at 50 µg/cm2 [1, 5] of 50 to 100% and a mortality at 50 µg/cm2 [2, 5] of 50 to 100%.

Source: US9469617B2, “Molecules having certain pesticidal utilities, and intermediates, compositions, and processes related thereto” (priority 2014, dated 2016)
